According to US9910031B2, “Compositions and methods for modulating c-Rel-dependent cytokine production” (Synta Pharmaceuticals Corporation, priority 2003, dated 2018):

Legend:
NFκB = test: Gel-shift assay of NFκB binding to the IL-12 p40 promoter site, THP-1 nuclear extracts; format: cell-based, human; conditions: IFN-γ-primed, SAC-stimulated THP-1; 1 μM Compound 1 or 10 mM ASA
Protocol: Nuclear extracts were prepared from IFN-γ-primed THP-1 cells that had been treated with or without SAC and incubated in the presence or absence of 1 μM Compound 1 or 10 mM ASA. Isolation of nuclear extracts was accomplished by first suspending THP-1 cells in 20 volumes of buffer A containing 10 mM KCl, 10 mM HEPES (pH 7.9), 1 mM MgCl2, 1 mM dithiothreitol (DTT), 0.1% Nonidet p40 (NP-40), and 0.5 mM phenylmethylsulfonyl fluoride (PMSF) and then homogenizing and centrifuging at 10,000 rpm at 4° C. for 5 min. Nuclear pellets were then suspended in buffer C containing 400 mM NaCl, 20 mM HEPES pH 7.9), 15 mM MgCl2, 0.2 mM EDTA, 1 mM DTT, 25% glycerol, 1 mM PMSF, and 10 μg of leupeptin, 20 μg of pepstatin, and 10 μg of antipain per ml, incubated for 30 min at 4° C., and centrifuge at 14,000 rpm for […]. The supernatants were dialyzed against buffer D containing 100 mM NaCl, 20 mM HEPES (pH 7.9), 20% glycerol, 1 mM PMSF, and 1 mM DTT.
The extracts obtained from this process were used in gel-shift assays using oligonucleotides containing the NFκB target sequence corresponding to the region −121 to −102 from the transcription initiation site of IL-12 p40 or a mutated NFκB binding site. […] This interaction was specific as it was competed away by an excess of unlabeled probe, but not by a mutated oligonucleotide in which two base-pairs were substituted. […]

IL-12 p70 = test: Inhibition of production of IL-12 p70 protein; format: cell-based, human; conditions: 1 μM Compound 1; 10 mM ASA
Protocol: Cells were co-transfected with the vector pCMV (BD Biosciences Clontech) in which the constitutively active CMV promoter directs β-galactosidase expression for the monitoring of transfection efficiency. Luciferase and β-galactosidase activity were determined in cell extracts prepared according to the Luciferase assay system (Promega) and Luminescent n-gal Detection system (BD Biosciences Clontech). Luciferase activity was then normalized using the β-galactosidase value. […] ELISA was performed by the following method. Human IL-12 p70 (heterodimer) was assayed using ELI-PAIR kit from Cell Sciences (Norwood, Mass.), according to the manufacturer's instructions. Human IL-12 p40 was assayed using ELISA kit from Cell Sciences (Norwood, Mass.) according to the manufacturer's instructions.
The extracts obtained from this process were used in gel-shift assays using oligonucleotides containing the NFκB target sequence corresponding to the region −121 to −102 from the transcription initiation site of IL-12 p40 or a mutated NFκB binding site. […] This interaction was specific as it was competed away by an excess of unlabeled probe, but not by a mutated oligonucleotide in which two base-pairs were substituted. […] This is expected since a compound that potently blocks NFkB have a far broader cytokine inhibitory profile than Compound 1/Compound 2.

CC(=O)Oc1ccccc1C(=O)O [ASA, reference compound]
NFκB binding to p40 promoter probe (gel shift) (NFκB): reduced the binding significantly
percent inhibition of production of IL-12 p70 protein (IL-12 p70): 45%
